The values below come from ChEMBL document CHEMBL3507680, “University of Dundee, Gates Library screen for HepG2 cell viability”.

This data set is described as follows: Human HepG2 cell viability assay in 384 well format. The format is toxicity, cell-based. Further details: dose 125 nL, time 70.5 hour; cytotoxicity at 70.5 h: concentration not given beside the values. Conditions: HepG2 cells, read-out: Inhibition.
Regarding `CN(C(=O)Cc1cccs1)C1CCN(c2ccccn2)CC1`, the cytotoxicity at 70.5 h is -5.49%.
The same measure for `Cc1ccccc1CCNC(=O)CN1CCCC(Cn2cncn2)C1` (stereo not drawn): -3.82%.
For `CC(=O)NCCNC(=O)CN1CCCC(Cn2cncn2)C1` (stereo not drawn), the cytotoxicity at 70.5 h is -4.84%.
Consider `Cc1nn(-c2ccccc2)cc1C(=O)N1CCCC(n2ccnc2C)C1` (stereo not drawn), for which the cytotoxicity at 70.5 h was -4.52%.
With `COc1cccc(CNC(=O)CN2CCCC(Cn3cncn3)C2)c1` (stereo not drawn), the cytotoxicity at 70.5 h was -1.72%.
As to `O=C(CN1CCCC(Cn2cncn2)C1)NCc1ccccc1F` (stereo not drawn), the cytotoxicity at 70.5 h is -4.63%.
The value for `O=C(CCc1cscn1)N1CCCC(n2cncn2)C1` (stereo not drawn) was 10.8%; that for `Cc1ccc(CNC(=O)CN2CCCC(Cn3cncn3)C2)cc1` (stereo not drawn) was -2.99%; that for `Cc1cc(C)n(CC2CCCCN2C(=O)c2ccc3c(c2)COC3)n1` (stereo not drawn) was 2.1%.
With `CN(Cc1ccc(N2CCOCC2)cc1)C(=O)Cn1cccnc1=O`, the cytotoxicity at 70.5 h was -3.91%.
The same measure for `CCN1CCN(C(=O)NCc2cccnc2-n2cccn2)CC1`: 10.5%; for `Cc1ccc(OCC(O)CN2CCc3c(ncn3C3CC3)C2)cc1` (stereo not drawn): -4.79%; for `Cc1cnn(C2CCCN(C(=O)c3cn(-c4ccccc4)nc3C)C2)c1` (stereo not drawn): -6.2%.
Regarding `Cc1cnn(CC2CCCCN2CCCS(=O)(=O)N(C)C)c1` (stereo not drawn), the cytotoxicity at 70.5 h was 18.7%.
The same measure for `CCNc1cc2c(nn1)CCN(C(=O)c1cc(C)no1)C2`: -3.88%; for `Cc1cnn(CC2CCCCN2CCS(C)(=O)=O)c1` (stereo not drawn): -1.02%; for `Cc1nn(C)cc1C(=O)N1CCCC(n2cncn2)C1` (stereo not drawn): -9.27%.
For the compound `CCNc1cc2c(nn1)CCN(C(=O)c1cc3cccc(C)c3o1)C2`, the cytotoxicity at 70.5 h is -2.31%.
As for `Cc1cnc(CN(C)C2CCN(Cc3nc4ccccc4o3)C2)o1` (stereo not drawn), the cytotoxicity at 70.5 h was 15.3%.
Consider `COc1ncccc1CNC(=O)c1ccco1`, for which the cytotoxicity at 70.5 h is 18%.
Regarding `Cc1noc(C)c1C(=O)NCc1ccc(N2CCCCCC2)nc1`, the cytotoxicity at 70.5 h is -6.77%.
For `CCN1CCN(c2ccc(CNC(=O)c3sccc3C)cn2)CC1`, the cytotoxicity at 70.5 h is -9.08%.
The value for `CC(Cn1cccn1)NC(=O)NCc1cccnc1OC(C)C` (stereo not drawn) was -4.84%; that for `Cc1noc(C)c1C(=O)NCc1ccc(N2CCOCC2)nc1` was -8.43%; that for `CCN1CCN(c2ccc(CNC(=O)Cc3c(C)noc3C)cn2)CC1` was -10.4%.
Regarding `COc1ncccc1CNC(=O)NCc1ccco1`, the cytotoxicity at 70.5 h is -1.48%.
On to `CC(C)C(=O)N(C)CC(=O)Nc1ccc(Br)cn1`, for which the cytotoxicity at 70.5 h was -2.8%.
With `CN(CC(=O)Nc1ccc(Br)cn1)C(=O)C(C)(C)C`, the cytotoxicity at 70.5 h is -6.91%.
The value for `CC(C)CCC(=O)N(C)CC(=O)Nc1ccc(Br)cn1` was 43.7%.
For `Cc1cnn(CC2CN(CC(=O)N(C)Cc3ccccc3)CCO2)c1` (stereo not drawn), the cytotoxicity at 70.5 h is 2.55%.
The same measure for `CSC(C)C(=O)N(C)CC(=O)Nc1ccc(Br)cn1` (stereo not drawn): -3.72%; for `CCC(CC)C(=O)N(C)CC(=O)Nc1ccc(Br)cn1`: -1.35%.
`c1cnn(CC2CCCCN2Cc2nc(-c3ccoc3)no2)c1` (stereo not drawn): the cytotoxicity at 70.5 h amounted to 3.95%.
The same measure for `c1cncc(-c2noc(CN3CCCC3Cn3cccn3)n2)c1` (stereo not drawn): -3.02%; for `COc1ccc(C(=O)N2CCCS2(=O)=O)cc1OC`: -1.63%.
The same measure for `c1cncc(-c2noc(CN3CCCCC3Cn3cccn3)n2)c1` (stereo not drawn): 1.66%; for `CC(C)CC(=O)N(C)CC(=O)Nc1ccc(Br)cn1`: 0.489%.
The value for `Cc1nc(CN(C)C2CCN(Cc3nc4ccccc4n3C)C2)no1` (stereo not drawn) was -2.1%.
`Cc1cccc(-c2noc(CN3CCCC3Cn3cncn3)n2)c1` (stereo not drawn): the cytotoxicity at 70.5 h is -1.92%.
On to `Cc1cnc(CN(C)C2CCN(Cc3nccn3C)C2)o1` (stereo not drawn), for which the cytotoxicity at 70.5 h was -3.1%.
Take `Cc1cc(CN(C)C(=O)c2ccc(F)c(C(F)(F)F)c2)no1`: the cytotoxicity at 70.5 h is -1.4%.
In the case of `Cc1nc(C(=O)N2CCCC2c2noc(C3CC3)n2)c[nH]1` (stereo not drawn), the cytotoxicity at 70.5 h was -0.671%.
The value for `Cc1cc(CN(C)C(=O)c2ccc(OCC(F)(F)F)nc2)no1` was 0.93%; that for `CCc1nc(CC(=O)N2CCCCC2Cn2cccn2)cs1` (stereo not drawn) was 19%.
The value for `CCc1nc(C2CCCN2C(=O)c2csc(COC)n2)no1` (stereo not drawn) was -0.0198%.
As for `OC(CNCCn1cccn1)c1cccc(F)c1` (stereo not drawn), the cytotoxicity at 70.5 h was -7.66%.
As to `Cc1noc(C(C)N2CCN(Cc3nnc(C4CC4)o3)CC2)n1` (stereo not drawn), the cytotoxicity at 70.5 h is -3.98%.
The value for `CC(Cn1cccn1)NCC(=O)NCCc1cccs1` (stereo not drawn) was -4.39%; that for `CC(C)c1nc(C2CCCN2CC(=O)Nc2cccnc2)no1` (stereo not drawn) was -14%; that for `CCc1nc(C2CCCN2Cc2cc(=O)n(C)c(=O)n2C)no1` (stereo not drawn) was -16.4%.
Take `Cc1cc(NC(=O)CN2CCCC2c2noc(C(C)C)n2)on1` (stereo not drawn): the cytotoxicity at 70.5 h is -14.1%.
The same measure for `CCn1nc2c(cc1=O)CN(Cc1nc(-c3cccs3)no1)CC2`: -12.8%; for `CC(Cn1cccn1)NC(=O)Cc1csc(C(C)C)n1` (stereo not drawn): -10.5%; for `Cn1ccc(C(=O)NCc2ccc(N3CCCCC3)nc2)cc1=O`: 18.6%.
As to `CC(C)NC(=O)c1cc(Br)c2c(c1)OCCO2`, the cytotoxicity at 70.5 h is -6.96%.
In the case of `CSc1ccccc1C(=O)NCCCN1CCc2ccccc2C1`, the cytotoxicity at 70.5 h is -5.68%.
The value for `Cc1cc(C)n(CC2CN(CCOc3ccccc3F)CCO2)n1` (stereo not drawn) was -2.73%; that for `CC(C)OCc1cccc(CNc2cnn(C)c(=O)c2Cl)c1` was 3.32%.
The same measure for `CC(C)C(C)NC(=O)c1cc(Br)c2c(c1)OCCO2` (stereo not drawn): -4.14%; for `Cc1nc(C)n(CC2CN(CCOc3ccccc3C#N)CCO2)n1` (stereo not drawn): -8.64%.
The value for `Cc1nc(C)n(CC2CN(CCOc3ccc(C#N)cc3)CCO2)n1` (stereo not drawn) was -13.3%; that for `Cc1nc(C2CCCN(C(=O)COCCc3ccccc3)C2)no1` (stereo not drawn) was -6.43%.
As to `CCc1csc(C2CCCN(C(=O)COc3cc(C)on3)C2)n1` (stereo not drawn), the cytotoxicity at 70.5 h is -8.8%.
The value for `Cc1cn2c(n1)CCC(NC(=O)c1[nH]nc(C)c1Br)C2` (stereo not drawn) was 13.2%; that for `Cc1cc(OCC(=O)N2CCCC(c3noc(C(C)C)n3)C2)no1` (stereo not drawn) was -1.68%; that for `Cc1nnc(NC(=O)CN2CCCC2c2noc(C(C)C)n2)s1` (stereo not drawn) was -8.98%.
With `Cc1ccc(OCCN2CCCC(c3cc(C(N)=O)[nH]n3)C2)cc1` (stereo not drawn), the cytotoxicity at 70.5 h is -5.38%.
The same measure for `Cc1ccccc1OCCN1CCCC(c2cc(C(N)=O)[nH]n2)C1` (stereo not drawn): -6.71%; for `Cc1cccc(OCCN2CCCC(c3cc(C(N)=O)[nH]n3)C2)c1` (stereo not drawn): -7.94%.
The value for `Cc1cc(NC(=O)CN2CCCC2c2noc(C)n2)n(C(C)(C)C)n1` (stereo not drawn) was -7.96%.
The same measure for `Cc1nc(C(=O)N2CCCC2c2cnn(C)c2)ccc1C#N` (stereo not drawn): 20.3%; for `O=C(CN1CCC(c2cccc(F)c2)C1)NCc1ccco1` (stereo not drawn): 59.3%.
With `O=C(NCCCn1cncn1)N1CCCC(N2CCCC2)C1` (stereo not drawn), the cytotoxicity at 70.5 h was -4.6%.
Regarding `CCC1CCCN(C(=O)Cc2csc(-c3ncccn3)n2)C1` (stereo not drawn), the cytotoxicity at 70.5 h is 36.3%.
For `CC(C(=O)N1CCCN(Cc2ccc(C#N)cc2)CC1)n1ccnc1` (stereo not drawn), the cytotoxicity at 70.5 h was determined as 0.793%.
The same measure for `COC(=O)CN(C)C1CCc2ccccc21` (stereo not drawn): -4.82%.
The same measure for `Cc1nc(C2CCCN2CCCNS(C)(=O)=O)no1` (stereo not drawn): -0.166%; for `Cc1noc(CCCC(=O)NC(C)c2ccccn2)n1` (stereo not drawn): -0.329%; for `COc1c(CNCc2cnn(C)c2)c(C(C)C)nn1C`: 7.69%.
Take `CN(CC(=O)N(C)C1CCCCC1)C1CCc2ccccc21` (stereo not drawn): the cytotoxicity at 70.5 h is -3.54%.
The same measure for `Cc1c(C(=O)NC(CN2CCCC2=O)c2ccccc2)cnn1C` (stereo not drawn): 0.932%; for `CCN(Cc1ccc(OC)c(F)c1)C(=O)c1ccc(C)[nH]c1=O`: -3.76%; for `CC(C)(C)n1cc(C(=O)N2CCN(Cc3ccccc3F)CC2)cn1`: 5.09%.
The value for `CC(=O)N1CCN(C(=O)CCOc2ccc(C(C)C)cc2)CC1` was -3.31%; that for `Cc1nc(-c2ccsc2)ccc1C(=O)NCCC1CCCO1` (stereo not drawn) was 28.6%.
Regarding `CNC(=O)NC(=O)CN1CCC(c2cccc(F)c2)C1` (stereo not drawn), the cytotoxicity at 70.5 h is -4.22%.
As to `Cc1cc(NC(=O)CN2CCn3c(nnc3C3CC3)C2)n(C)n1`, the cytotoxicity at 70.5 h was 7.81%.
With `CNc1nc(CNC(=O)Nc2cccc(F)c2C)cs1`, the cytotoxicity at 70.5 h is -7.06%.
The value for `Cc1noc(CCCC(=O)NC(C)c2cn(-c3ccccc3)nn2)n1` (stereo not drawn) was -3%; that for `CNc1nc(CNC(=O)Nc2ccccc2-c2noc(C)n2)cs1` was 7.32%; that for `COc1c(CNCc2ccc(CN(C)C)cc2)c(C(C)C)nn1C` was 2.15%.
The same measure for `Cc1noc(C)c1CCC(=O)N1CCCN(Cc2cscn2)CC1`: -2.08%.
As for `OC(COCc1ccccc1Cl)CN1CC(n2cccn2)C1` (stereo not drawn), the cytotoxicity at 70.5 h was determined as 4.22%.
As to `Cc1ncc(CNC2CCCN(Cc3noc(C4CC4)n3)C2)s1` (stereo not drawn), the cytotoxicity at 70.5 h is -2.63%.
The same measure for `Cc1cc2n(n1)CC(CNCc1cnn(-c3ccccc3)c1)CN2` (stereo not drawn): -3.87%.
For `O=C(Cc1ccc2c(c1)OCO2)N1CCN(c2cnccn2)CC1`, the cytotoxicity at 70.5 h is -8.46%.
The same measure for `CCOc1ccccc1OC1CCN(C(=O)c2nc(=O)[nH][nH]2)CC1`: 27.9%; for `CC(C)Oc1ncccc1CNC(=O)C1CCCN(C(=O)C2CC2)C1` (stereo not drawn): 6.38%.
Take `c1cnn(CC2CN(Cc3nc(-c4ccsc4)no3)CCO2)c1` (stereo not drawn): the cytotoxicity at 70.5 h was -16.6%.
`O=C(c1ccc(NC2CC2)nc1)N1CCCC(n2cccn2)C1` (stereo not drawn): the cytotoxicity at 70.5 h is -4.81%.
Consider `CCOc1ccccc1C(CC(=O)Nc1ccc(C)cn1)NC(C)=O` (stereo not drawn), for which the cytotoxicity at 70.5 h is -9.08%.
Consider `Cc1ccc(N2CCCN(C(=O)C3(C#N)CCCCC3)CC2)nn1`, for which the cytotoxicity at 70.5 h is -0.352%.
The same measure for `CCc1ccc(C(=O)N2CCN(CCS(C)(=O)=O)CC2)o1`: -14.1%.
